Data taken from patent US20240382564A1, “Methods and Compositions for Treating Muscular Dystrophy and Memory Impairment” (Allysta Pharmaceuticals, Inc., priority 2023, published 2024).
Where no end group is shown, it is not given here. [ ]: non-standard residue; d: D form. Nva = CCC[C@H](N)C(=O)O

Test system: D2.mdx mice
Assay: Fibre-type specific minimal Feret's diameter (muscle atrophy), myosin heavy chain immunofluorescence
Format: in vivo, mouse
Description: D2.mdx mice were treated with ALY688 at two different dosages; high dose (HD; 15 mg/kg body weight/day) or low dose (LD; 3 mg/kg body weight/day) dissolved in saline. A separate group of mice were treated with saline alone (VEH, vehicle). Treatment was provided via subscapular subcutaneous injections from 7 days of age to 28-30 days. […] At 28-30 days of age, mice were anaesthetized with isoflurane vaporized in medical air (21% oxygen) at a 2 L/min flow rate. Due to tissue limitations in limb muscle, certain measures were performed separately in tibialis anterior and quadriceps across several phases of breeding. Following the treatment protocol, in situ quadriceps force assessments were then performed in one limb followed by removal of the quadriceps from the other limb for mitochondrial assessments, diaphragm for in vitro force assessments and finally other tissues for further processing as described below. Muscle and visceral organs weights were normalized to tibia length. Tissue collected from the first phase were utilized in force, histological, mitochondrial measures (respiration, mH2O2 and calcium retention capacity) and western analyses (diaphragm and quadriceps only). A second phase was then collected and utilized for cytokine profiling, qPCR analyses and additional westerns (TA only). Serum was collected from both phase 1 and 2 and utilized for serum CK analysis. All animals were utilized in in vivo functional assays (grip strength, cage hang time and voluntary wheel running).
Samples collected were cut into 8 µm thick serial cross sections with a cryostat (Thermo Fisher Scientific; Kalamazoo, MI, United States;) maintained at −20° C. on Fisherbrand Superfrost Plus slides (Thermo Fisher Scientific). Hematoxylin and eosin (H&E) and Masson's trichrome staining was used to assess muscle health and fibrosis. Centralized nuclei, a marker of regenerating fibres, was analyzed by selecting five evenly spaced images throughout the muscle and averaging the result. Areas of damage (fibres with fragmented sarcoplasm and immune cell infiltration) were expressed as a percentage of the entire muscle section. Images were taken using EVOS M7000 imager (Thermo Fisher Scientific) using 20× magnification and analyzed using ImageJ (http://imagej.nih.gov/ij/). To determine fibrotic area, skeletal muscle sections were stained with Masson's Trichrome (fibrotic regions stain blue for collagen) and expressed as a percentage of a region of interest, which included the entire muscle section with any artifacts removed. Sections were imaged Nikon 90i-eclipse microscope (Nikon Inc., Melville, NY) and analysed with the NIS Elements AR software (v4.6, Nikon). […] These images were then analyzed with ImageJ for minimal Feret's diameter as an index of muscle atrophy.

## [dN]IP[Nva]LY[dS]FA[dS]-NH2 [ALY688]
diaphragm, HD 15 mg/kg/day
  atrophy in MHC I fibers (minimal feret diameter): completely prevented atrophy
diaphragm, HD, WT 24, VEH 20
  minimal feret diameter, IIA fibers: 22 μm
diaphragm, HD, WT 26, VEH 23
  minimal feret diameter, IIB fibers: 24 μm
Tibialis anterior, between the groups
  minimal feret diameter in any fiber type: no differences
